Reference: patent US11919901B2 (Syndax Pharmaceuticals, Inc., priority 2021, dated 2024)

What was measured:
Menin-MLL = Menin-MLL (Homo sapiens (Human), UniProt O00255); assay: Determination of binding constants (Ki) to Menin-MLL (HTRF); settings: HTRF, 0.25 nM H-FL-Menin, 3.2 nM FITC-MLL-4-43, 24 hr incubation; for Ki: read-out: Menin-MLL Ki HTRF Assay: Ki
hERG = hERG (Homo sapiens (Human), UniProt Q12809); assay: Patch clamp assay (hERG tail currents, whole-cell); assay type: cell-based; settings: hERG transfected HEK 293 cells; for hERG % Remaining 30 μM: 30 μM compound; for hERG % Remaining 10 μM: 10 μM compound; for hERG % Remaining 100 μM: 100 μM compound
Chain of hERG (Q12809 whole entry): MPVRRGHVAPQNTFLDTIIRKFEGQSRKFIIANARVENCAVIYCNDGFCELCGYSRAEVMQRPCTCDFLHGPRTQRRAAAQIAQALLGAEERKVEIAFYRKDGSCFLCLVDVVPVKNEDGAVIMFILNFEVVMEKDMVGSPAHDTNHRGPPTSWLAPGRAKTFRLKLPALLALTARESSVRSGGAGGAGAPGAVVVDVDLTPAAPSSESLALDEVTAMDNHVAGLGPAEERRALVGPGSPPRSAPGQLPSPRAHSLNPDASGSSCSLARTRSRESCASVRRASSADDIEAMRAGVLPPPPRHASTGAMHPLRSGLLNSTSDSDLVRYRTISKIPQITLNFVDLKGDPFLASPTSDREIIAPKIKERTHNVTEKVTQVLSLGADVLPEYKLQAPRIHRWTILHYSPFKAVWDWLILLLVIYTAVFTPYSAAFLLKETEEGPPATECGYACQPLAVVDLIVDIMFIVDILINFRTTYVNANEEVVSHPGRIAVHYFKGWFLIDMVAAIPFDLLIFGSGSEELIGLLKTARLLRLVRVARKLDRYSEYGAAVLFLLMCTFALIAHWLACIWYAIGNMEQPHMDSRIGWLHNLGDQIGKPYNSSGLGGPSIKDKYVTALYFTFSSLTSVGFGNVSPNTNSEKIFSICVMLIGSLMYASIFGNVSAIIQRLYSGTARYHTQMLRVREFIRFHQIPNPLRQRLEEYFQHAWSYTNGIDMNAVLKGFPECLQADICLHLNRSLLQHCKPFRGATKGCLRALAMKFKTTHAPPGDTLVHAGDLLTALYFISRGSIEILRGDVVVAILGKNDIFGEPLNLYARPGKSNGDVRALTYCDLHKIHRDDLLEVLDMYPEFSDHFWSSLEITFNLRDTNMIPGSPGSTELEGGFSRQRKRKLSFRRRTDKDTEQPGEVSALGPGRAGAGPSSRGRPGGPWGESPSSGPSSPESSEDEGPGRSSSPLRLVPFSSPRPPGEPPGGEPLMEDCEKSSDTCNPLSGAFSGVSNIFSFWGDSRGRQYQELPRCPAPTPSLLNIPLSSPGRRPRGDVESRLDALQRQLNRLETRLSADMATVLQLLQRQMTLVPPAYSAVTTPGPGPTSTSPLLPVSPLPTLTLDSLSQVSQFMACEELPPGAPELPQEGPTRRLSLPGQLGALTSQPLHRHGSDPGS

Chain of Menin-MLL (O00255 whole entry): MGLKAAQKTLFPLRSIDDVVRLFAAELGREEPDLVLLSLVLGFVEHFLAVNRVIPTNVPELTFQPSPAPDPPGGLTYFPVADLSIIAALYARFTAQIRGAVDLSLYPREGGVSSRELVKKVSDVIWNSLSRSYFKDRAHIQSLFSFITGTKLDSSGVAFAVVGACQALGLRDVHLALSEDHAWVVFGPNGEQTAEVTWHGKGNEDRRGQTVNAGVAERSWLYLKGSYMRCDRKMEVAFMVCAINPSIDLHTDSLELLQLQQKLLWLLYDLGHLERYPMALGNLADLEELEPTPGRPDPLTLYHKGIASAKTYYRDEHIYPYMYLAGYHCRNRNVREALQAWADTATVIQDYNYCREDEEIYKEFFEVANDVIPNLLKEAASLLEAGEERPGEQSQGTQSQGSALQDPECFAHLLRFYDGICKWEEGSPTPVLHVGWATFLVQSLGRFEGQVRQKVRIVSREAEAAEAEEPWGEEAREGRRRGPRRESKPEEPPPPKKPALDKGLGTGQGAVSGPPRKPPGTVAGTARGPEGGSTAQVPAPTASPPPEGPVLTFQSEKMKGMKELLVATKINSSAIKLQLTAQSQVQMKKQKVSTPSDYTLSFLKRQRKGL

| Structure (SMILES) | Ki (Menin-MLL) | hERG % Remaining 30 μM (hERG) | hERG % Remaining 10 μM (hERG) | IC50 (hERG) | EC50 (Menin-MLL) | hERG % Remaining 100 μM (hERG) | IC50 (hERG; human, HEK 293 cells stably transfected with hERG) |
| --- | --- | --- | --- | --- | --- | --- | --- |
| CCNS(=O)(=O)N[C@@H]1CC[C@@H](CN2CCC3(CC2)CN(c2ncncc2Oc2ccc(F)cc2C(=O)N(C(C)C)C2CC2)C3)OC1 [Compound 145, N-Cyclopropyl-2-((4-(7-(((2S,5R)-5-((N-ethylsulfamoyl)amino)tetrahydro-2H-pyran-2-yl)methyl)-2,7-diazaspiro[3.5]nonan-2-yl)pyrimidin-5-yl)oxy)-5-fluoro-N-isopropylbenzamide] | < 1 nM | +++ (“+++” means ≥66%) | – | – | – | – | – |
| CCNS(=O)(=O)N[C@@H]1CC[C@@H](CN2CCC3(CC2)CN(c2ncncc2Oc2ccc(F)cc2C(=O)N(CC(F)F)C(C)C)C3)OC1 [Compound 147, N-(2,2-Difluoroethyl)-2-((4-(7-(((2S,5R)-5-((N-ethylsulfamoyl)amino)tetrahydro-2H-pyran-2-yl)methyl)-2,7-diazaspiro[3.5]nonan-2-yl)pyrimidin-5-yl)oxy)-5-fluoro-N-isopropylbenzamide] | < 1 nM | +++ (“+++” means ≥66%) | +++ (“+++” means ≥66%) | ≥ 50 µM | – | – | – |
| CC(C)N(CC(F)F)C(=O)c1cc(F)ccc1Oc1cncnc1N1CC2(CCN(C[C@@H]3CC[C@@H](NS(=O)(=O)NCC4CC4)CO3)CC2)C1 [Compound 148, 2-((4-(7-(((2S,5R)-5-((N-(Cyclopropylmethyl)sulfamoyl)amino)tetrahydro-2H-pyran-2-yl)methyl)-2,7-diazaspiro[3.5]nonan-2-yl)pyrimidin-5-yl)oxy)-N-(2,2-difluoroethyl)-5-fluoro-N-isopropylbenzamide] | < 1 nM | +++ (“+++” means ≥66%) | – | – | – | – | – |
| CC(C)N(CC(F)F)C(=O)c1cc(F)ccc1Oc1cncnc1N1CC2(CCN(C[C@@H]3CC[C@@H](NS(=O)(=O)NC4CC4)CO3)CC2)C1 [Compound 149, 2-((4-(7-(((2S,5R)-5-((N-Cyclopropylsulfamoyl)amino)tetrahydro-2H-pyran-2-yl)methyl)-2,7-diazaspiro[3.5]nonan-2-yl)pyrimidin-5-yl)oxy)-N-(2,2-difluoroethyl)-5-fluoro-N-isopropylbenzamide] | < 1 nM | +++ (“+++” means ≥66%) | – | – | – | – | – |
| CCNS(=O)(=O)N[C@@H]1CC[C@@H](CN2CCC3(CC2)CN(c2ncncc2Oc2ccc(F)cc2C(=O)N(CC(F)(F)F)C(C)C)C3)OC1 [Compound 153, 2-((4-(7-(((2S,5R)-5-((N-Ethylsulfamoyl)amino)tetrahydro-2H-pyran-2-yl)methyl)-2,7-diazaspiro[3.5]nonan-2-yl)pyrimidin-5-yl)oxy)-5-fluoro-N-isopropyl-N-(2,2,2-trifluoroethyl)benzamide] | < 1 nM | +++ (“+++” means ≥66%) | – | ≥ 50 µM | – | – | – |
| CNS(=O)(=O)N[C@@H]1CC[C@@H](CN2CCC3(CC2)CN(c2ncncc2Oc2ccc(F)cc2C(=O)N(C(C)C)C2CC(F)(F)C2)C3)OC1 [Compound 154] | < 1 nM | ++ (“++” means ≥33% and <66%) | +++ (“+++” means ≥66%) | – | – | – | – |
| CCNS(=O)(=O)N[C@@H]1CC[C@@H](CN2CCC3(CC2)CN(c2ncncc2Oc2ccc(F)cc2C(=O)N(C(C)C)C2CC(F)(F)C2)C3)OC1 [Compound 155, N-(3,3-Difluorocyclobutyl)-2-((4-(7-(((2S,5R)-5-((N-ethylsulfamoyl)amino)tetrahydro-2H-pyran-2-yl)methyl)-2,7-diazaspiro[3.5]nonan-2-yl)pyrimidin-5-yl)oxy)-5-fluoro-N-isopropylbenzamide] | < 1 nM | ++ (“++” means ≥33% and <66%) | +++ (“+++” means ≥66%) | – | – | – | – |
| CC(C)N(C(=O)c1cc(F)ccc1Oc1cncnc1N1CC2(CCN(C[C@@H]3CC[C@@H](NS(=O)(=O)c4cnn(C)c4)CO3)CC2)C1)C1CC(F)(F)C1 [Compound 156, N-(3,3-Difluorocyclobutyl)-5-fluoro-N-isopropyl-2-((4-(7-(((2S,5R)-5-((1-methyl-1H-pyrazole)-4-sulfonamido)tetrahydro-2H-pyran-2-yl)methyl)-2,7-diazaspiro[3.5]nonan-2-yl)pyrimidin-5-yl)oxy)benzamide] | < 1 nM | +++ (“+++” means ≥66%) | – | – | – | – | – |
| C[C@@H]1COC[C@@H](C)N1C(=O)c1cc(F)ccc1Oc1cncnc1N1CC2(CCN(C[C@@H]3CC[C@@H](NS(=O)(=O)NCC4CC4)CO3)CC2)C1 [Compound 158, (Cyclopropylmethyl)({[(3R,6S)-6-{[2-(5-{2-[(3R,5R)-3,5-dimethylmorpholine-4-carbonyl]-4-fluorophenoxy}pyrimidin-4-yl)-2,7-diazaspiro[3.5]nonan-7-yl]methyl}oxan-3-yl]sulfamoyl})amine] | < 1 nM | +++ (“+++” means ≥66%) | – | – | – | – | – |
| C[C@@H]1COC[C@H](C)N1C(=O)c1cc(F)ccc1Oc1cncnc1N1CC2(CCN(C[C@@H]3CC[C@@H](NS(=O)(=O)N4CCC4)CO3)CC2)C1 [Compound 161, N-((3R,6S)-6-((2-(5-(2-((3R,5S)-3,5-Dimethylmorpholine-4-carbonyl)-4-fluorophenoxy)pyrimidin-4-yl)-2,7-diazaspiro[3.5]nonan-7-yl)methyl)tetrahydro-2H-pyran-3-yl)azetidine-1-sulfonamide] | < 1 nM | +++ (“+++” means ≥66%) | – | – | – | – | – |
| CC(C)N(C(=O)c1cc(F)ccc1Oc1cncnc1N1CC2(CCN(C[C@@H]3CC[C@@H](NS(=O)(=O)C4CC4)CO3)CC2)C1)[C@@H]1CCOC1 [Compound 164, 2-((4-(7-(((2S,5R)-5-(Cyclopropanesulfonamido)tetrahydro-2H-pyran-2-yl)methyl)-2,7-diazaspiro[3.5]nonan-2-yl)pyrimidin-5-yl)oxy)-5-fluoro-N-isopropyl-N-((R)-tetrahydrofuran-3-yl)benzamide] | < 1 nM | +++ (“+++” means ≥66%) | +++ (“+++” means ≥66%) | – | < 50 nM | – | – |
| CCN(CC)S(=O)(=O)N[C@@H]1CC[C@@H](CN2CCC3(CC2)CN(c2ncncc2Oc2ccc(F)cc2C(=O)N(C(C)C)[C@@H]2CCOC2)C3)OC1 [Compound 165, 2-((4-(7-(((2S,5R)-5-((N,N-Diethylsulfamoyl)amino)tetrahydro-2H-pyran-2-yl)methyl)-2,7-diazaspiro[3.5]nonan-2-yl)pyrimidin-5-yl)oxy)-5-fluoro-N-isopropyl-N-((R)-tetrahydrofuran-3-yl)benzamide] | < 1 nM | ++ (“++” means ≥33% and <66%) | +++ (“+++” means ≥66%) | – | – | – | – |
| CC(C)N(C(=O)c1cc(F)ccc1Oc1cncnc1N1CC2(CCN(C[C@@H]3CC[C@@H](NS(=O)(=O)N(C)C)CO3)CC2)C1)[C@@H]1CCOC1 [Compound 167, 2-((4-(7-(((2S,5R)-5-((N,N-Dimethylsulfamoyl)amino)tetrahydro-2H-pyran-2-yl)methyl)-2,7-diazaspiro[3.5]nonan-2-yl)pyrimidin-5-yl)oxy)-5-fluoro-N-isopropyl-N-((R)-tetrahydrofuran-3-yl)benzamide] | < 1 nM | +++ (“+++” means ≥66%) | – | ≥ 50 µM | – | +++ (“+++” means ≥66%) | – |
| CCN(CC)S(=O)(=O)N[C@@H]1CC[C@@H](CN2CCC3(CC2)CN(c2ncncc2Oc2ccc(F)cc2C(=O)N(C(C)C)[C@H]2CCOC2)C3)OC1 [Compound 175, 2-((4-(7-(((2S,5R)-5-((N,N-Diethylsulfamoyl)amino)tetrahydro-2H-pyran-2-yl)methyl)-2,7-diazaspiro[3.5]nonan-2-yl)pyrimidin-5-yl)oxy)-5-fluoro-N-isopropyl-N-((S)-tetrahydrofuran-3-yl)benzamide] | < 1 nM | + (“+” means <33%) | ++ (“++” means ≥33% and <66%) | – | – | – | – |
| CC(C)N(C(=O)c1cc(F)ccc1Oc1cncnc1N1CC2(CCN(C[C@@H]3CC[C@@H](NS(=O)(=O)C4CC4)CO3)CC2)C1)[C@H]1CCOC1 [Compound 176, 2-((4-(7-(((2S,5R)-5-(Cyclopropanesulfonamido)tetrahydro-2H-pyran-2-yl)methyl)-2,7-diazaspiro[3.5]nonan-2-yl)pyrimidin-5-yl)oxy)-5-fluoro-N-isopropyl-N-((S)-tetrahydrofuran-3-yl)benzamide] | < 1 nM | +++ (“+++” means ≥66%) | +++ (“+++” means ≥66%) | – | – | +++ (“+++” means ≥66%) | ≥ 50 µM |
| CC(C)N(C(=O)c1cc(F)ccc1Oc1cncnc1N1CC2(CCN(C[C@@H]3CC[C@@H](NS(=O)(=O)N(C)C)CO3)CC2)C1)[C@H]1CCOC1 [Compound 177, 2-((4-(7-(((2S,5R)-5-((N,N-Dimethylsulfamoyl)amino)tetrahydro-2H-pyran-2-yl)methyl)-2,7-diazaspiro[3.5]nonan-2-yl)pyrimidin-5-yl)oxy)-5-fluoro-N-isopropyl-N-((S)-tetrahydrofuran-3-yl)benzamide] | < 1 nM | +++ (“+++” means ≥66%) | +++ (“+++” means ≥66%) | – | – | – | – |
| CC(C)N(CC#N)C(=O)c1cc(F)ccc1Oc1cncnc1N1CC2(CCN(C[C@@H]3CC[C@@H](NS(=O)(=O)N(C)C)CO3)CC2)C1 [Compound 181, N-(Cyanomethyl)-2-((4-(7-(((2S,5R)-5-((N,N-dimethylsulfamoyl)amino)tetrahydro-2H-pyran-2-yl)methyl)-2,7-diazaspiro[3.5]nonan-2-yl)pyrimidin-5-yl)oxy)-5-fluoro-N-isopropylbenzamide] | < 1 nM | +++ (“+++” means ≥66%) | – | – | – | – | – |
| CC(C)N(CC#N)C(=O)c1cc(F)ccc1Oc1cncnc1N1CC2(CCN(C[C@@H]3CC[C@@H](NS(=O)(=O)N4CCC4)CO3)CC2)C1 [Compound 182, 2-((4-(7-(((2S,5R)-5-(Azetidine-1-sulfonamido)tetrahydro-2H-pyran-2-yl)methyl)-2,7-diazaspiro[3.5]nonan-2-yl)pyrimidin-5-yl)oxy)-N-(cyanomethyl)-5-fluoro-N-isopropylbenzamide] | < 1 nM | +++ (“+++” means ≥66%) | – | – | – | – | – |
